In one experiment the test system is MCF7. Put plainly: Growth inhibition of human MCF7 cells after 72 hrs by MTT assay. It is filed as functional, cell-based. The conditions noted are these: MCF7, 72 h.
The test system of experiment [1] is MDA-MB-231. Description: Growth inhibition of human MDA-MB-231 cells after 72 hrs by MTT assay. It counts as functional, cell-based. Particulars: MDA-MB-231, 72 h.
Experiment [2] has as its system MDA-MB-231. Description: Growth inhibition of human MDA-MB-231 cells at 1 to 5 uM after 72 hrs by MTT assay. It is filed as functional, cell-based.
In experiment [3] the test system is MDA-MB-231. Description: Induction of apoptosis in human MDA-MB-231 cells assessed as late apoptotic cells at 5 uM after 48 hrs by Annexin V-FITC/propidium iodide staining based flow cytometry (reference value: 6.5%). It counts as functional.
A short description of experiment [4]: Growth inhibition of human WM9 cells after 72 hrs by MTT assay. It counts as functional. The conditions noted are these: WM9, 72 h.
Experiment [5] has as its system MDA-MB-231. Description: Induction of apoptosis in human MDA-MB-231 cells assessed as late apoptotic cells at 5 uM after 24 hrs by Annexin V-FITC/propidium iodide staining based flow cytometry (reference value: 4.8%). It is filed as functional.
Experiment [6] deals with MDA-MB-231. Description: Inhibition of autophagy in human MDA-MB-231 cells assessed as increase in p62 protein expression at 5 uM after 16 hrs by Western blot analysis. It is filed as functional, cell-based.
Experiment [7] relates to MDA-MB-231. Put plainly: Cell cycle arrest in human MDA-MB-231 cells assessed as accumulation at G1 phase at 5 uM after 24 hrs by propidium iodide staining based flow cytometry (reference value: 47.9%). It is filed as functional.
Experiment [8] relates to MDA-MB-231. Description: Induction of morphological changes in human MDA-MB-231 cells assessed as cell detachment at 5 uM after 24 hrs. It counts as functional, cell-based.
In a further experiment the test system is 4T1. Put plainly: Growth inhibition of mouse 4T1 cells after 72 hrs by MTT assay. Particulars: 4T1, 72 h. It counts as functional, cell-based.
Experiment [9] deals with MDA-MB-231. Put plainly: Cell cycle arrest in human MDA-MB-231 cells assessed as accumulation at G2/M phase at 5 uM after 24 hrs by propidium iodide staining based flow cytometry (reference value: 18.5%). It counts as functional.
Another experiment concerns HEL. Description: Growth inhibition of HEL cells after 72 hrs by MTT assay. It is filed as functional, cell-based. The conditions noted are these: Homo sapiens.
The test system of experiment [10] is MDA-MB-231. Put plainly: Cell cycle arrest in human MDA-MB-231 cells assessed as accumulation at G1 phase at 5 uM after 48 hrs by propidium iodide staining based flow cytometry (reference value: 3.19%). It is filed as functional.
Experiment [11] relates to MDA-MB-231. Put plainly: Induction of apoptosis in human MDA-MB-231 cells assessed as necrotic cells at 5 uM after 48 hrs by Annexin V-FITC/propidium iodide staining based flow cytometry (reference value: 0.7%). It is filed as functional.
The subject of experiment [12] is MDA-MB-231. Description: Induction of apoptosis in human MDA-MB-231 cells assessed as necrotic cells at 5 uM after 24 hrs by Annexin V-FITC/propidium iodide staining based flow cytometry (reference value: 0.7%). It counts as functional.
For experiment [13], the system named is MDA-MB-231. Put plainly: Induction of apoptosis in human MDA-MB-231 cells assessed as increase in Bax protein expression at 5 uM after 16 hrs by Western blot analysis. It counts as functional, cell-based.
Experiment [14] has as its system MDA-MB-231. Put plainly: Induction of apoptosis in human MDA-MB-231 cells assessed as live cells at 5 uM after 48 hrs by Annexin V-FITC/propidium iodide staining based flow cytometry (reference value: 87.6%). It is filed as functional.
For experiment [15], the system named is MDA-MB-231. Description: Cell cycle arrest in human MDA-MB-231 cells assessed as accumulation at S phase at 5 uM after 48 hrs by propidium iodide staining based flow cytometry (reference value: 31.71%). It is filed as functional.
Experiment [16] has as its system MDA-MB-231. Description: Induction of apoptosis in human MDA-MB-231 cells assessed as decrease in Bcl2 protein expression at 5 uM after 16 hrs by Western blot analysis. It is filed as functional, cell-based.
For experiment [17], the system named is MDA-MB-231. Description: Cell cycle arrest in human MDA-MB-231 cells assessed as accumulation at G2/M phase at 5 uM after 48 hrs by propidium iodide staining based flow cytometry (reference value: 17.79%). It is filed as functional.
For experiment [18], the system named is MDA-MB-231. Put plainly: Induction of apoptosis in human MDA-MB-231 cells assessed as live cells at 5 uM after 24 hrs by Annexin V-FITC/propidium iodide staining based flow cytometry (reference value: 90.8%). It is filed as functional.
For experiment [19], the system named is MDA-MB-231. Description: Induction of apoptosis in human MDA-MB-231 cells assessed as early apoptotic cells at 5 uM after 48 hrs by Annexin V-FITC/propidium iodide staining based flow cytometry (reference value: 5.3%). It counts as functional.
Experiment [20] concerns MDA-MB-231. Put plainly: Induction of apoptosis in human MDA-MB-231 cells assessed as increase in Cyclin-B1 protein expression at 5 uM after 16 hrs by Western blot analysis. It is filed as functional, cell-based.
Experiment [21] is described as follows: Growth inhibition of human WM35 cells after 72 hrs by MTT assay. It is filed as functional. The conditions noted are these: WM35, 72 h.
Experiment [22] deals with MDA-MB-231. Put plainly: Induction of apoptosis in human MDA-MB-231 cells assessed as early apoptotic cells at 5 uM after 24 hrs by Annexin V-FITC/propidium iodide staining based flow cytometry (reference value: 3.7%). It is filed as functional.
In the next experiment the test system is K562. Description: Growth inhibition of human K562 cells after 72 hrs by MTT assay. Particulars: K562, 72 h. It counts as functional, cell-based.
Experiment [23] concerns the target Serine/threonine-protein kinase mTOR (Homo sapiens) (UniProt P42345). Put plainly: Inhibition of mTOR phosphorylation in human MDA-MB-231 cells at 5 uM after 16 hrs by Western blot analysis. It is filed as cell-based.
Experiment [24] has as its system MDA-MB-231. Description: Cell cycle arrest in human MDA-MB-231 cells assessed as accumulation at S phase at 5 uM after 24 hrs by propidium iodide staining based flow cytometry (reference value: 29.76%). It counts as functional.
For experiment [25], the system named is MDA-MB-231. Description: Inhibition of autophagy in human MDA-MB-231 cells assessed as LC3-2 accumulation at 5 uM after 16 hrs by DAPI staining based immunofluorescence assay. It is filed as functional, cell-based.

pIC50: −log10 of the molar value. Active and inactive are the calls of the source. The calls are words filed in the database; no cut-off is given here.

Regarding `O=C(NCc1cccnc1)c1cc2c3ccccc3[nH]c2c2c1[nH]c1ccccc12`, the pIC50 with MCF7 was 5.01; with MDA-MB-231 [1] it was 5.22.

As for `CN(C)c1ccc(NC(=O)c2cc3c4ccccc4[nH]c3c3c2[nH]c2ccccc23)cc1`, the pIC50 in the experiment with MCF7 is 4.79; in the experiment with MDA-MB-231 [1], 5.11.

`O=C(NCCc1c[nH]cn1)c1cc2c3ccccc3[nH]c2c2c1[nH]c1ccccc12`: the pIC50 with MCF7 was 5.31; in the experiment with MDA-MB-231 [1] it was 5.38.

In the case of `CCN1CCCC1CNC(=O)c1cc2c3ccccc3[nH]c2c2c1[nH]c1ccccc12` (configuration not stated), the pIC50 in the experiment on MCF7 is 5.23; with MDA-MB-231 [1], 5.45.

As for `CN(C)CCN(C)C(=O)c1cc2c3ccccc3[nH]c2c2c1[nH]c1ccccc12`, the negative logarithm of the IC50 (pIC50) is 5.20 in the experiment on MCF7 and 5.53 with MDA-MB-231 [1].

In the case of `COC(=O)c1cc2c3ccccc3[nH]c2c2c1[nH]c1ccccc12`, the pIC50 in the experiment with MCF7 and with MDA-MB-231 [1] was less than 4.40 each time.

In the case of `O=C(NCCN1CCCCC1)c1cc2c3ccccc3[nH]c2c2c1[nH]c1ccccc12`, the pIC50 in the experiment with MCF7 is 5.49; with MDA-MB-231 [1], 5.76.

Consider `CN(C)CCNC(=O)c1cc2c3ccccc3[nH]c2c2c1[nH]c1ccccc12`, for which the negative-log IC50 (pIC50) with MCF7 was 5.47; in the experiment with MDA-MB-231 [1] it was 5.84.

For `O=C(NCc1ccccn1)c1cc2c3ccccc3[nH]c2c2c1[nH]c1ccccc12`, the pIC50 in the experiment on MCF7 is 4.64; in the experiment with MDA-MB-231 [1], 5.10.

For the compound `COC(=O)c1cc2c3ccccc3[nH]c2c2c1[nH]c1cc(Cl)ccc12`, the pIC50 in the experiment with MCF7 and in the experiment on MDA-MB-231 [1] was less than 4.40 each time.

With `O=C(NCc1ccncc1)c1cc2c3ccccc3[nH]c2c2c1[nH]c1ccccc12`, the figures for the pIC50 in the experiment on MCF7 and with MDA-MB-231 [1] were 5.09 and 5.25, respectively.

`COc1ccc2[nH]c3c(C(=O)NCCN4CCCC4)cc4c5ccccc5[nH]c4c3c2c1`: the pIC50 with MCF7 was 5.25; with MDA-MB-231 [1], 5.55.

In the case of `COc1cc([C@@H]2c3cc4c(cc3[C@@H](O[C@@H]3O[C@@H]5CO[C@@H](C)O[C@H]5[C@H](O)[C@H]3O)[C@H]3COC(=O)[C@H]23)OCO4)cc(OC)c1O` [ETOPOSIDE], in the experiment on MDA-MB-231 [2], the “growth inhibition (GI)” value is “Active”. The Activity in the experiment with MDA-MB-231 [3] is 8.8%; in the experiment with MDA-MB-231 [5], 4%; in the experiment on MDA-MB-231 [7], 7.59%; with MDA-MB-231 [9], 63.98%; in the experiment with MDA-MB-231 [10], 8.57%; with MDA-MB-231 [11] it was 10.1%. The Activity in the experiment with MDA-MB-231 [12] was determined as 0.7%; in the experiment with MDA-MB-231 [14], 75.5%; in the experiment on MDA-MB-231 [15], 15.48%; with MDA-MB-231 [17], 70.43%; with MDA-MB-231 [18] it was 90.7%; in the experiment with MDA-MB-231 [19] it was 5.5%. For the same compound, the Activity in the experiment on MDA-MB-231 [22] was determined as 4.6%; with MDA-MB-231 [24], 19.24%. Moreover, the pIC50 in experiment [4] is 5.76; in the experiment on 4T1 it was less than 5.00; in the experiment with MCF7, less than 5.00; in the experiment on HEL, 6.04; in experiment [21], 6.40; in the experiment with MDA-MB-231 [1], less than 5.00. In the experiment with K562, this compound showed a pIC50 of 5.03. In addition, the inhibition result (in the experiment on MDA-MB-231 [6]; in [23]; in the experiment with MDA-MB-231 [25]) was “inactive” each time. Further, the result with MDA-MB-231 [8], in the experiment on MDA-MB-231 [13], with MDA-MB-231 [16] and with MDA-MB-231 [20] was Active.

For `COc1ccc2[nH]c3c(C(=O)NCCN(C)C)cc4c5ccccc5[nH]c4c3c2c1`, the pIC50 with MCF7 was 5.29; in the experiment on MDA-MB-231 [1] it was 5.56.

Consider `CN1CCC(NC(=O)c2cc3c4ccccc4[nH]c3c3c2[nH]c2ccccc23)CC1`, for which the results for the pIC50 in the experiment on MCF7 and in the experiment with MDA-MB-231 [1] were 5.41 and 5.79, respectively.

Values taken from ChEMBL document CHEMBL4382242, “Novel racemosin B derivatives as new therapeutic agents for aggressive breast cancer” (Bioorg Med Chem, 2018).
